This note sets out measurements from US10450292B2, “Inhibitors of bacterial RNA polymerase: arylpropanoyl, arylpropenoyl, and arylcyclopropanecarboxyl phloroglucinols” (Rutgers, The State University of New Jersey, priority 2015, dated 2019).

≈ marks a conversion by molar mass, not a printed value. A value given as a limit tells only on which side of the number the result lay.

For experiment [1], the system named is Staphylococcus aureus ATCC 12600. The experiment can be described thus: Inhibition of bacterial growth in culture, spiral gradient endpoint assay (MIC). The note with it: Staphylococcus aureus, ATCC12600, 16 h, read-out: MIC S. aureus 12600, Mueller-Hinton II agar, 16 h at 37° C.
Experiment [2] relates to Escherichia coli D21f2tolC. The experiment is described as follows: microbe, parasite or virus in culture. The note with it: 16 h, read-out: MIC E. coli D21f2tolC, Mueller-Hinton II agar, 16 h at 37° C.
Experiment [3] concerns Enterococcus faecalis ATCC 19433. The experiment can be described thus: Inhibition of bacterial growth in culture, spiral gradient endpoint assay (MIC). It is filed as cell-based. As to conditions: Enterococcus faecalis, ATCC 19433 /, 16 h, read-out: MIC E. faecalis, Mueller-Hinton II agar, 16 h at 37° C. The source says: J. Microbiol. Meths. […] Int. J. Exp. Clin. Chemother. […] Adv.

`CCCC1=C(O)C(CCC)(CCC)C(=O)C(C(=O)C2CC2c2ccc(C(F)(F)F)cc2)=C1O` (stereo not drawn) [Example 91, 3,5-dihydroxy-4,6,6-tripropyl-2-(2-(4-(trifluoromethyl)phenyl)cyclopropanecarbonyl)cyclohexa-2,4-dienone]: the MIC in experiment [1] amounted to 0.36 µg/mL (≈ 0.775 µM); in experiment [2] it was 0.66 µg/mL (≈ 1.42 µM); in experiment [3], 0.41 µg/mL (≈ 0.883 µM).
In the same order, the values of `O=C(c1c(O)cc(O)cc1O)C1CC1c1ccc(Oc2ccccc2)cc1` (stereo not drawn) [Example 22, (2-(4-phenoxyphenyl)cyclopropyl)(2,4,6-trihydroxyphenyl) methanone] are 1 µg/mL (≈ 2.76 µM), 0.49 µg/mL (≈ 1.35 µM) and 1.3 µg/mL (≈ 3.59 µM).
Taken in the same sequence, the figures for `Cc1cc(Oc2ccccc2)ccc1C1CC1C(=O)c1c(O)cc(O)c(Cl)c1O` (stereo not drawn) [Example 42, (3-chloro-2,4,6-trihydroxyphenyl)(2-(2-methyl-4-phenoxyphenyl)cyclopropyl)methanone] were 14 µg/mL (≈ 34.1 µM), 10 µg/mL (≈ 24.3 µM) and 16 µg/mL (≈ 38.9 µM).
In the same order, the values of `CCCC1=C(O)C(CCC)(CCC)C(=O)C(C(=O)C2CC2c2ccc(Cl)cc2C(F)(F)F)=C1O` (stereo not drawn) [Example 80, 2-(2-(4-chloro-2-(trifluoromethyl)phenyl)cyclopropanecarbonyl)-3,5-dihydroxy-4,6,6-tripropylcyclohexa-2,4-dienone] are 0.14 µg/mL (≈ 0.281 µM), 0.33 µg/mL (≈ 0.661 µM) and 0.42 µg/mL (≈ 0.842 µM).
For `Cc1cc(Cl)ccc1C1CC1C(=O)c1c(O)cc(O)c(Cl)c1O` (stereo not drawn) [Example 56, (3-chloro-2,4,6-trihydroxyphenyl)(2-(4-chloro-2-methylphenyl)cyclopropyl)methanone], the figures for the MIC in experiment [1], in experiment [2] and in experiment [3] were 17 µg/mL (≈ 48.1 µM), above 40 µg/mL and 22 µg/mL (≈ 62.3 µM), respectively.
In the same order, the values of `CC1=C(O)C(C)(C)C(=O)C(C(=O)C2CC2c2ccc(Oc3ccc(F)cc3)cc2)=C1O` (stereo not drawn) [Example 92, 2-(2-(4-(4-fluorophenoxy)phenyl)cyclopropanecarbonyl)-3,5-dihydroxy-4,6,6-trimethylcyclohexa-2,4-dienone] are 21 µg/mL (≈ 49.7 µM), 5.5 µg/mL (≈ 13 µM) and above 40 µg/mL.
In the same order, the values of `CCCC1=C(O)C(CCC)(CCC)C(=O)C(C(=O)C2CC2c2ccc(C(F)(F)F)cc2C(F)(F)F)=C1O` (stereo not drawn) [Example 86, 2-(2-(2,4-bis(trifluoromethyl)phenyl)cyclopropanecarbonyl)-3,5-dihydroxy-4,6,6-tripropylcyclohexa-2,4-dienone] are 0.65 µg/mL (≈ 1.22 µM), 2.2 µg/mL (≈ 4.13 µM) and 1.7 µg/mL (≈ 3.19 µM).
On to `O=C(c1c(O)cc(O)c(Cl)c1O)C1CC1c1ccc(Oc2ccc(F)cc2)cc1C(F)(F)F` (stereo not drawn) [Example 51, (3-chloro-2,4,6-trihydroxyphenyl)(2-(4-(4-fluorophenoxy)-2-(trifluoromethyl)phenyl)cyclopropyl)methanone], for which the MIC in experiment [1] is 11 µg/mL (≈ 22.8 µM); in experiment [2], 16 µg/mL (≈ 33.1 µM); in experiment [3], 15 µg/mL (≈ 31.1 µM).
Consider `CC(Cc1ccc(Cl)cc1)C(=O)c1c(O)cc(O)cc1O` (racemic) [Example 30, 3-(4-chlorophenyl)-2-methyl-1-(2,4,6-trihydroxyphenyl)propan-1-one], for which the results for the MIC in experiment [1], in experiment [2] and in experiment [3] were 14 µg/mL (≈ 45.6 µM), 6.5 µg/mL (≈ 21.2 µM) and 17 µg/mL (≈ 55.4 µM), respectively.
Taken in the same sequence, the figures for `O=C(c1c(O)cc(O)cc1O)C1CC1c1ccc(Oc2ccc(F)cc2)cc1` (stereo not drawn) [Example 12, (2-(4-(4-fluorophenoxy)phenyl)cyclopropyl)(2,4,6-trihydroxyphenyl) methanone] were 3.1 µg/mL (≈ 8.15 µM), 1.5 µg/mL (≈ 3.94 µM) and 4 µg/mL (≈ 10.5 µM).
With `O=C(CCc1ccc(Oc2cccc(Cl)c2)cc1)c1c(O)cc(O)cc1O` [Example 3, 3-(4-(3-chlorophenoxy)phenyl)-1-(2,4,6-trihydroxyphenyl)propan-1-one], the MIC was found to be 1.9 µg/mL (≈ 4.94 µM) in experiment [1], 1.9 µg/mL (≈ 4.94 µM) in experiment [2] and 3.7 µg/mL (≈ 9.62 µM) in experiment [3].
Turning to `O=C(C=Cc1ccc(Oc2ccc(Cl)cc2)cc1)c1c(O)cc(O)cc1O` (mixture of isomers) [Example 5, (E)-3-(4-(4-chlorophenoxy)phenyl)-1-(2,4,6-trihydroxyphenyl)prop-2-en-1-one], the MIC in experiment [1] amounted to 2.6 µg/mL; in experiment [2], 1.6 µg/mL; in experiment [3], 6 µg/mL.
As to `Cc1cc(Oc2ccccc2)ccc1C1CC1C(=O)c1c(O)cc(O)cc1O` (stereo not drawn) [Example 39, (2-(2-methyl-4-phenoxyphenyl)cyclopropyl)(2,4,6-trihydroxyphenyl)methanone], the MIC in experiment [1] was 3.6 µg/mL (≈ 9.56 µM); in experiment [2] it was 1.6 µg/mL (≈ 4.25 µM); in experiment [3] it was 4.1 µg/mL (≈ 10.9 µM).
With `O=C(c1c(O)cc(O)cc1O)C1CC1c1ccc(Oc2ccc(Cl)cc2)cc1C(F)(F)F` (stereo not drawn) [Example 25, (2-(4-(4-chlorophenoxy)-2-(trifluoromethyl)phenyl)cyclopropyl)(2,4,6-trihydroxyphenyl)methanone], the MIC stood at 1.7 µg/mL (≈ 3.66 µM) in experiment [1], 1.5 µg/mL (≈ 3.23 µM) in experiment [2] and 1.7 µg/mL (≈ 3.66 µM) in experiment [3].
For `Cc1cc(Oc2ccc(Cl)cc2)ccc1/C=C/C(=O)c1c(O)cc(O)cc1O` [Example 18, (E)-3-(4-(4-chlorophenoxy)-2-methylphenyl)-1-(2,4,6-trihydroxyphenyl)prop-2-en-1-one], the MIC in experiment [1] is 1.3 µg/mL (≈ 3.28 µM); in experiment [2], 1.1 µg/mL (≈ 2.77 µM); in experiment [3], 2.4 µg/mL (≈ 6.05 µM).
Taken in the same sequence, the figures for `Cc1cc(Oc2ccc(F)cc2)ccc1/C=C/C(=O)c1c(O)cc(O)cc1O` [Example 27, (E)-3-(4-(4-fluorophenoxy)-2-methylphenyl)-1-(2,4,6-trihydroxyphenyl)prop-2-en-1-one] were 5.1 µg/mL (≈ 13.4 µM), 2.4 µg/mL (≈ 6.31 µM) and 17 µg/mL (≈ 44.7 µM).
In the same order, the values of `O=C(CCc1ccc(Oc2ccc(F)cc2)cc1C(F)(F)F)c1c(O)cc(O)c(Cl)c1O` [Example 49, 1-(3-chloro-2,4,6-trihydroxyphenyl)-3-(4-(4-fluorophenoxy)-2-(trifluoromethyl)phenyl)propan-1-one] are 12 µg/mL (≈ 25.5 µM), 12 µg/mL (≈ 25.5 µM) and 12 µg/mL (≈ 25.5 µM).
In the same order, the values of `O=C(/C=C/c1ccc(Oc2ccccc2)cc1)c1c(O)cc(O)cc1O` [Example 8, (E)-3-(4-phenoxyphenyl)-1-(2,4,6-trihydroxyphenyl)prop-2-en-1-one] are 6.5 µg/mL (≈ 18.7 µM), 3.8 µg/mL (≈ 10.9 µM) and 31 µg/mL (≈ 89 µM).
On to `Cc1cc(Oc2ccc(F)cc2)ccc1C1CC1C(=O)c1c(O)cc(O)c(Cl)c1O` (stereo not drawn) [Example 52, (3-chloro-2,4,6-trihydroxyphenyl)(2-(4-(4-fluorophenoxy)-2-methylphenyl)cyclopropyl)methanone], for which the MIC in experiment [1] came to 3.2 µg/mL (≈ 7.46 µM); in experiment [2], 7.5 µg/mL (≈ 17.5 µM); in experiment [3], 5.2 µg/mL (≈ 12.1 µM).
Taken in the same sequence, the figures for `CCC1=C(O)C(CC)(CC)C(=O)C(C(=O)CCc2ccc(Oc3ccc(F)cc3)cc2)=C1O` [Example 61, 4,6,6-triethyl-2-(3-(4-(4-fluorophenoxy)phenyl)propanoyl)-3,5-dihydroxycyclohexa-2,4-dienone] were 0.56 µg/mL (≈ 1.24 µM), 0.24 µg/mL (≈ 0.53 µM) and 0.44 µg/mL (≈ 0.972 µM).
In the same order, the values of `CC1=C(O)C(C)(C)C(=O)C(C(=O)C2CC2c2ccc(Oc3ccc(F)cc3)cc2C)=C1O` (stereo not drawn) [Example 75, 2-(2-(4-(4-fluorophenoxy)-2-methylphenyl)cyclopropanecarbonyl)-3,5-dihydroxy-4,6,6-trimethylcyclohexa-2,4-dienone] are 17 µg/mL (≈ 38.9 µM), 5.1 µg/mL (≈ 11.7 µM) and above 40 µg/mL.
Taken in the same sequence, the figures for `O=C(/C=C/c1ccc(Oc2ccc(Cl)cc2)cc1C(F)(F)F)c1c(O)cc(O)cc1O` [Example 17, (E)-3-(4-(4-chlorophenoxy)-2-(trifluoromethyl)phenyl)-1-(2,4,6-trihydroxyphenyl)prop-2-en-1-one] were 1.8 µg/mL (≈ 3.99 µM), 2.5 µg/mL (≈ 5.55 µM) and 1.9 µg/mL (≈ 4.21 µM).
Consider `CCCC1=C(O)C(CCC)(CCC)C(=O)C(C(=O)C2CC2c2ccc(Oc3ccccc3)cc2)=C1O` (stereo not drawn) [Example 59, 3,5-dihydroxy-2-(2-(4-phenoxyphenyl)cyclopropanecarbonyl)-4,6,6-tripropylcyclohexa-2,4-dienone], for which the MIC is 0.7 µg/mL (≈ 1.43 µM) in experiment [1], 1.1 µg/mL (≈ 2.25 µM) in experiment [2] and 3 µg/mL (≈ 6.14 µM) in experiment [3].
Take `O=C(c1c(O)cc(O)c(Cl)c1O)C1CC1c1ccc(Oc2ccc(F)cc2)cc1` (stereo not drawn) [Example 46, (3-chloro-2,4,6-trihydroxyphenyl)(2-(4-(4-fluorophenoxy)phenyl)cyclopropyl)methanone]: the MIC in experiment [1] came out at 9.6 µg/mL (≈ 23.1 µM); in experiment [2] it was 6.6 µg/mL (≈ 15.9 µM); in experiment [3] it was 12 µg/mL (≈ 28.9 µM).
In the same order, the values of `O=C(CCc1ccc(Oc2ccc(F)cc2)cc1)c1c(O)cc(O)c(Cl)c1O` [Example 45, 1-(3-chloro-2,4,6-trihydroxyphenyl)-3-(4-(4-fluorophenoxy)phenyl)propan-1-one] are 9.6 µg/mL (≈ 23.8 µM), 5.2 µg/mL (≈ 12.9 µM) and 11 µg/mL (≈ 27.3 µM).
Taken in the same sequence, the figures for `CCCC1=C(O)C(CCC)(CCC)C(=O)C(C(=O)CCc2ccc(Oc3ccc(F)cc3)cc2C(F)(F)F)=C1O` [Example 68, 2-(3-(4-(4-fluorophenoxy)-2-(trifluoromethyl)phenyl)propanoyl)-3,5-dihydroxy-4,6,6-tripropylcyclohexa-2,4-dienone] were 0.6 µg/mL (≈ 1.07 µM), 1.5 µg/mL (≈ 2.67 µM) and 1.3 µg/mL (≈ 2.31 µM).
In the same order, the values of `O=C(/C=C/c1ccc(Oc2ccc(C(F)(F)F)cc2)cc1)c1c(O)cc(O)cc1O` [Example 28, (E)-3-(4-(4-(trifluoromethyl)phenoxy)phenyl)-1-(2,4,6-trihydroxyphenyl)prop-2-en-1-one] are 3.1 µg/mL (≈ 7.45 µM), 2.4 µg/mL (≈ 5.76 µM) and 6.5 µg/mL (≈ 15.6 µM).
